Results taken from patent US9017689B2, “Peptides for vaccine against birch allergy” (Circassia Limited, priority 2010, dated 2015).
Where two headings read alike, the source gives them in different places. Ends that are not written are not given here.

Assay: Solubility screening in trehalose matrices pH 2.65 to 7.03;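 note: test items are peptides, each checked for solubility in every trehalose matrix, the matrices made up in distilled deionised water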
Type: physicochemical
Conditions: for solubility: read-out: Solubility [mg per ml]
[1] = 2 mM HCl and 260 mM trehalose dihydrate, pH 2.65
[2] = 10 mM potassium dihydrogen phosphate and 260 mM trehalose dihydrate, pH 6.03
[3] = 10 mM potassium dihydrogen phosphate and 260 mM trehalose dihydrate, pH 7.03
[4] = 10 mM sodium citrate and 260 mM trehalose dihydrate, pH 3.01
[5] = 10 mM sodium citrate and 260 mM trehalose dihydrate, pH 3.99
[6] = 10 mM sodium citrate and 260 mM trehalose dihydrate, pH 5.02
[7] = 10 mM sodium citrate and 260 mM trehalose dihydrate, pH 6.01
[8] = aqueous buffer, 10 mM potassium dihydrogen phosphate and 260 mM trehalose dihydrate, pH 6.03
[9] = aqueous buffer, 10 mM potassium dihydrogen phosphate and 260 mM trehalose dihydrate, pH 7.03
[10] = aqueous buffer, 10 mM sodium citrate and 260 mM trehalose dihydrate, pH 3.99
[11] = aqueous buffer, 10 mM sodium citrate and 260 mM trehalose dihydrate, pH 5.02
[12] = aqueous buffer, 10 mM sodium citrate and 260 mM trehalose dihydrate, pH 6.01
[13] = water, 2 mM HCl and 260 mM trehalose dihydrate, pH 2.65

## FNYETETTSVIPAARK [BIR1I]
[1]
  Comments (solubility on preparation): Completely dissolved
  Solubility [mg per ml 'as is']: 19.50 mg per ml ‘as is’
  Solubility [μmol per ml]: 9.222 μmol per ml
  Solubility after 24 Hours: Completely dissolved
[2]
  Commute (solubility on preparation): Completely dissolved
  Solubility [mg per ml 'as is']: 22.14 mg per ml ‘as is’
  Solubility [μmol per ml]: 10.470 μmol per ml
  Solubility after 24 Hours: Completely dissolved
[3]
  Comments (solubility on preparation): Completely dissolved
  Solubility [mg per ml 'as is']: 20.78 mg per ml ‘as is’
  Solubility [μmol per ml]: 9.827 μmol per ml
  Solubility after 24 Hours: Completely dissolved
[4]
  Comments (solubility on preparation): Completely dissolved
  Solubility [mg per ml 'as is']: 1.65 mg per ml ‘as is’
  Solubility [μmol per ml]: 0.779 μmol per ml
  Solubility after 24 Hours: Completely dissolved
[5]
  Comments (solubility on preparation): Completely dissolved
  Solubility [mg per ml 'as is']: 2.28 mg per ml ‘as is’
  Solubility [μmol per ml]: 1.078 μmol per ml
  Solubility after 24 Hours: Completely dissolved
[6]
  Comments (solubility on preparation): Completely dissolved
  Solubility [mg per ml 'as is']: 2.30 mg per ml ‘as is’
  Solubility [μmol per ml]: 1.089 μmol per ml
  Solubility after 24 Hours: Completely dissolved
[7]
  Comments (solubility on preparation): Completely dissolved
  Solubility [mg per ml 'as is']: 7.45 mg per ml ‘as is’
  Solubility [μmol per ml]: 3.522 μmol per ml
  Solubility after 24 Hours: Completely dissolved
[8]
  solubility: ≥ 19100 µg/mL
[9]
  solubility: ≥ 18000 µg/mL
Aqueous buffer, 10 mM sodium citrate and 260 mM trehalose dihydrate, pH 3.01
  solubility: ≥ 1420 µg/mL
[10]
  solubility: ≥ 1970 µg/mL
[11]
  solubility: ≥ 1990 µg/mL
[12]
  solubility: ≥ 6430 µg/mL
[13]
  solubility: ≥ 16800 µg/mL

## PAARMFKAFILEGDKLVPK [Bir02J]
[1]
  Comments (solubility on preparation): Completely dissolved
  Solubility [mg per ml 'as is']: 23.60 mg per ml ‘as is’
  Solubility [μmol per ml]: 9.069 μmol per ml
  Solubility after 24 Hours: Completely dissolved
[2]
  Commute (solubility on preparation): Completely dissolved
  Solubility [mg per ml 'as is']: 11.12 mg per ml ‘as is’
  Solubility [μmol per ml]: 4.273 μmol per ml
  Solubility after 24 Hours: Completely dissolved
[3]
  Comments (solubility on preparation): Completely dissolved
  Solubility [mg per ml 'as is']: 12.31 mg per ml ‘as is’
  Solubility [μmol per ml]: 4.730 μmol per ml
  Solubility after 24 Hours: Completely dissolved
[4]
  Comments (solubility on preparation): Completely dissolved in
  Solubility [mg per ml 'as is']: 0.38 mg per ml ‘as is’
  Solubility [mg per ml]: 0.314 mg per ml
  Solubility [μmol per ml]: 0.147 μmol per ml
  Solubility after 24 Hours: Precipitated out,
[5]
  Comments (solubility on preparation): Completely dissolved in
  Solubility [mg per ml 'as is']: 0.39 mg per ml ‘as is’
  Solubility [μmol per ml]: 0.148 μmol per ml
  Solubility after 24 Hours: Precipitated out,
[6]
  Comments (solubility on preparation): Completely dissolved in
  Solubility [mg per ml 'as is']: 0.34 mg per ml ‘as is’
  Solubility [μmol per ml]: 0.132 μmol per ml
  Solubility after 24 Hours: Precipitated out,
[7]
  Comments (solubility on preparation): Completely dissolved in
  Solubility [mg per ml 'as is']: 0.39 mg per ml ‘as is’
  Solubility [μmol per ml]: 0.150 μmol per ml
  Solubility after 24 Hours: Precipitated out,
[8]
  solubility: ≥ 9110 µg/mL
[9]
  solubility: ≥ 10100 µg/mL
[10]
  solubility: ≥ 315 µg/mL
[11]
  solubility: ≥ 281 µg/mL
[12]
  solubility: ≥ 320 µg/mL
[13]
  solubility: ≥ 19300 µg/mL
